From patent US9301938B2, “Composition and method for treatment of diabetes” (BioKier, Inc., priority 2009, dated 2016) come the findings set out here.

Assay [1] has as its system obese diabetic patients. As to the kind of experiment: Six-week once-daily MMX tablet treatment with OGTT or standardized meal. It is filed as in vivo, human. Particulars: one MMX tablet daily before first meal for six weeks. On the procedure:
Tablets formulated with MMX technology (containing 1 g of glutamine) are made as described in^2. 10 obese diabetic patients with impaired incretin effect^3 and/or impaired incretin secretion^4,5 are dosed with one MMX tablet at 8:00 AM before first meal for six (6) weeks. HbA1c, fasting glucose and insulin are measured before treatment and at 1, 2, and 6 weeks after initiation of the treatment. Additionally, patients are subjected at these times to Oral Glucose Tolerance Test (OGTT) or standardized meal. Blood is collected at the following time points: −30, 0, 5; 10, 15, 30, 60, 90, and 120 minutes. Blood is analyzed for levels of: glucose, insulin, GLP-1, PYY, other hormones and lipids. […] Tablets formulated with MMX technology (containing 2 g of butyric acid) are made as described in^2. 10 obese diabetic patients with impaired gut hormone effect^3 and/or impaired gut hormone secretion^4,5 are dosed with one MMX tablet at 8:00 AM before first meal for six (6) weeks. HbA1c, fasting glucose and insulin are measured before the treatment and at 1, 2, and 6 weeks after initiation of the treatment. Additionally, patients are subjected at these times to Oral Glucose Tolerance Test (OGTT) or standardized meal. Blood is collected at the following time points: −30, 0, 5; 10, 15, 30, 60, 90, and 120 min. Blood is analyzed for levels of: glucose, insulin, GLP-1, PYY, other hormones and lipids.

Assay [2] deals with obese diabetic patients. As to the kind of experiment: Oral Glucose Tolerance Test (OGTT) or standardized meal after a single dose. The conditions noted are these: overnight fasted patients. The format is in vivo, human. As to the method: Drug is delivered as an enema or suppositories made as described in^1 (containing 1 g of glutamine). 10 overnight fasted obese diabetic patients with impaired gut hormone effect^3 and/or impaired gut hormone secretion^4,5 are dosed rectally with one suppository (or enema). 30 minutes after drug administration, patients are subjected to Oral Glucose Tolerance Test (OGTT) or standardized meal. Blood is collected at the following time points: −30, 0, 5; 10, 15, 30, 60, 90, and 120 minutes. Blood is analyzed for levels of: glucose, insulin, GLP-1, PYY, other hormones and lipids. […] Drug is delivered as an enema or suppositories made as described in^1 (containing 2 g of butyric acid). 10 overnight fasted obese diabetic patients with impaired incretin effect^3 and/or impaired gut hormone secretion^4,5 are dosed rectally with one suppository (or enema). 30 minutes after drug administration, patients are subjected to Oral Glucose Tolerance Test (OGTT) or standardized meal. Blood is collected at the following time points: −30, 0, 5; 10, 15, 30, 60, 90, and 120 minutes. Blood is analyzed for levels of: glucose, insulin, GLP-1, PYY, other hormones and lipids. […] Tablets formulated with MMX technology (containing 1 g of glutamine) are made as described in^2. 10 overnight fasted obese diabetic patients with impaired gut hormone effect^3 and/or impaired gut hormone secretion^4,5 are dosed with one MMX tablet at 8:00 AM. 4 hrs after drug administration, patients are subjected to Oral Glucose Tolerance Test (OGTT) or standardized meal. Blood is collected at the following time points: −30, 0, 5; 10, 15, 30, 60, 90, and 120 minutes. Blood is analyzed for levels of: glucose, insulin, GLP-1, PYY, other hormones and lipids. […] Tablets formulated with MMX technology (containing 2 g of butyric acid) are made as described in^2. 10 overnight fasted obese diabetic patients with impaired gut hormone effect^3 and/or impaired gut hormone secretion^4,5 are dosed with one MMX tablet at 8:00 AM. 4 hrs after drug administration, patients are subjected to Oral Glucose Tolerance Test (OGTT) or standardized meal. Blood is collected at the following time points: −30, 0, 5; 10, 15, 30, 60, 90, and 120 minutes. Blood is analyzed for levels of: glucose, insulin, GLP-1, PYY, other hormones and lipids.

Where [3] appears, read: one MMX tablet orally, 4 hrs before OGTT or standardized meal.
Setting [4] is: one MMX tablet orally, 4 hrs before standardized meal.
Where [5] appears, read: one suppository or enema rectally, 30 minutes before OGTT or standardized meal.
Where [6] appears, read: one suppository or enema rectally, 30 minutes before standardized meal.

`CCCC(=O)O` [butyric acid]: the Glucose levels entry in assay [1], in assay [2] (setting [3]) and in assay [2] (setting [5]) was “decrease” in each case. Also, the “triglycerides levels versus pre-treatment” value in assay [1] is “lower than pre-treatment levels”. In addition, the “lipids levels (after standardized meal)” value in assay [2] (setting [4]) and in assay [2] (setting [6]) was “decrease” each time.

Take `NC(=O)CC[C@H](N)C(=O)O` [glutamine]: the Glucose levels entry in assay [1], in assay [2] (setting [3]) and in assay [2] (setting [5]) was “decrease” throughout. Moreover, the “triglycerides levels versus pre-treatment” value in assay [1] was “lower than pre-treatment levels”. In addition, the “lipids levels (after standardized meal)” value in assay [2] (setting [4]) and in assay [2] (setting [6]) was “decrease” throughout.
